Source: paper PMC9440615 (Biochemical pharmacology, 2020)
Structures can show the parent of a compound that is named as a salt. Where two headings read alike, the source gives them in different places.

Columns and labels:
[1] = target: T1, hPXR (Homo sapiens, UniProt O75469)
T1 sequence (O75469 1-434): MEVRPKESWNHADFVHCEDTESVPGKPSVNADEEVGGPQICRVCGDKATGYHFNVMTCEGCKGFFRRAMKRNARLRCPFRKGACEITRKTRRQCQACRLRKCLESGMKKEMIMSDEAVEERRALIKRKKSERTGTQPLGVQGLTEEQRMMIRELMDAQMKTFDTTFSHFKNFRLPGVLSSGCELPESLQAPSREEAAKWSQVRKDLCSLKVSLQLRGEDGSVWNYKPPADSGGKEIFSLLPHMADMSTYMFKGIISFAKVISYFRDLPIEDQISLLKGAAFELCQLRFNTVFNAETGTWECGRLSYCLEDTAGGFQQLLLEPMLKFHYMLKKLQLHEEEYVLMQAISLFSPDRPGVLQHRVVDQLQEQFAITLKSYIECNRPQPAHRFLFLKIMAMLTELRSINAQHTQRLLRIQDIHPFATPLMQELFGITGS

[2] = target: T1, hPXR; assay: cell-based
[3] = system: CYP3A4 mRNA expression
[4] = system: CYP3A4 mRNA expression; assay: CYP3A4 mRNA induction in HepaRG cells; details: 24 h treatment, Fig. 2A; for CYP3A4 mRNA induction (result in words): compared with vehicle or RIF 10 μM
[5] = system: CYP3A4 mRNA expression; assay: CYP3A4 mRNA induction in HepaRG-PXR-KO cells versus HepaRG cells; type: cell-based, human; details: HepaRG-PXR-KO vs HepaRG, 24 h, Fig. 5A
[6] = system: CYP2B6 mRNA expression; assay: CYP2B6 mRNA induction in HepaRG-PXR-KO cells versus HepaRG cells; type: cell-based, human; details: HepaRG-PXR-KO vs HepaRG, 24 h, Fig. 5B
[7] = PXR Primary EC50, qHTS primary screen, hPXR-Luc HepG2, 24 h
[8] = qHTS primary screen, hPXR-Luc HepG2, 24 h, relative to positive control RIF

EC50 [2] [µM]	EC50 [2, 7] [µM]	PXR Primary Efficacy [1, 8] [%]	Compound	PXR Follow-up Efficacy [1]	PXR Primary Efficacy [1]	also measured
			CC[C@H]1CN2CCc3cc(OC)c(OC)cc3[C@@H]2C[C@@H]1C[C@H]1NCCc2cc(OC)c(OC)cc21 [Emetine]	0.1 ± 0.01 [119 ± 8.89] %	0.05 ± 0.04 [211 ± 74.0] %	
			CCCN(CCC)c1c([N+](=O)[O-])cc(C(F)(F)F)c(N)c1[N+](=O)[O-] [Prodiamine]	8.5 ± 0.9 [108 ± 6.61] %	4.7 ± 0.8 [168 ± 31.0] %	EC50 ([2]; PXR Primary EC50): 4.7 µM; EC50 ([2]; […]): 8.5 µM
			O=C(CCCCCCC(=O)Nc1ccccc1)NO [Vorinostat (SAHA), Vorinostat]		7.8 ± 3.8 [182 ± 46.9] %	
			N=C(Nc1ccccc1)Nc1ccccc1 [1,3-Diphenylguanidine]	2.7 ± 0.3 [393 ± 128] %	8.0 ± 13.7 [461 ± 143] %	EC50 ([2]; PXR Primary EC50): 8 µM; EC50 ([2]; […]): 2.7 µM
			COC(=O)c1c(C(F)F)nc(C(F)(F)F)c(C2=NCCS2)c1CC(C)C [Thiazopyr]	4.6 ± 0.3 [102 ± 8.66] %	1.2 ± 1.0 [108 ± 37.9] %	CYP3A4 mRNA induction (result in words) [3]: greater extent than the positive control; EC50 ([2]; PXR Primary EC50): 1.2 µM; EC50 ([2]; […]): 4.6 µM
			Cc1nc(Nc2ncc(C(=O)Nc3c(C)cccc3Cl)s2)cc(N2CCN(CCO)CC2)n1 [Dasatinib]	0.6 ± 0.07 [127 ± 12.0] %	0.3 ± 0.5 [84.6 ± 22.2] %	
			O=C(CCCN1CCC2(CC1)C(=O)NCN2c1ccccc1)c1ccc(F)cc1 [Spiperone]	6.2 ± 3.3 [345 ± 225] %	3.7 ± 0.4 [341 ± 31.7] %	CYP3A4 mRNA induction (fold increase) [4]: > 5 fold; CYP3A4 mRNA induction (result in words) [4]: not statistically significant
			Clc1ccc(-c2nc3sccn3c2C=NOCc2ccc(Cl)c(Cl)c2)cc1 [CITCO, 6-(4-Chlorophenyl)imidazo[2,1–b][1, 3]thiazole-5-carbaldehyde O-(3,4-dichlorobenzyl)oxime]			Change of CYP3A4 mRNA induction in PXR-KO cells [5]: lack a significant decrease; Change of CYP2B6 mRNA expression in PXR-KO cells [6]: significantly decreased
1.6 ± 0.3	3.2 ± 1.7	188 ± 41.7	O[C@@H](COc1cccc2ncccc12)CN1CCN([C@@H]2c3ccccc3[C@@H]3[C@H](c4ccccc42)C3(F)F)CC1 [Zosuquidar trihydrochloride]			
			Nc1nc(Cl)nc2c1ncn2[C@@H]1O[C@H](CO)[C@@H](O)[C@@H]1F [Clofarabine]	3.3 ± 0.4 [214 ± 13.9] %	0.7 ± 0.2 [112 ± 34.6] %	
			CC(C)C[C@H](NC(=O)[C@H](Cc1ccccc1)NC(=O)c1cnccn1)B(O)O [Bortezomib]	0.02 ± 0.004 [83.8 ± 12.8] %	0.008 ± 0.0005 [97.7 ± 17.9] %	
0.1 ± 0.02	0.04 ± 0.024	110 ± 10.3	CC(C)C[C@H](NC(=O)[C@H](CCc1ccccc1)NC(=O)CN1CCOCC1)C(=O)N[C@@H](Cc1ccccc1)C(=O)N[C@@H](CC(C)C)C(=O)[C@@]1(C)CO1 [Carfilzomib]			
3.2 ± 0.4	2.6 ± 1.3	175 ± 74.6	CCN1C(=O)c2ccccc2C1Nc1ccc(OCCN2CCCCC2)cc1 (stereo not drawn) [Etomidoline]			CYP3A4 mRNA induction (result in words) [4]: greater extent than the positive control
10.8 ± 1.2	8.8 ± 3.3	222 ± 59.5	CCOc1cc(N)c(Cl)cc1C(=O)NCC1CN(Cc2ccc(F)cc2)CCO1 (stereo not drawn) [Mosapride citrate]			
			COc1cccc(N(C)C(=S)Oc2ccc3c(c2)CCCC3)n1 [Liranaftate]	4.5 ± 0.7 [144 ± 16.0] %	5.5 ± 2.6 [148 ± 42.6] %	CYP3A4 mRNA induction (result in words) [3]: greater extent than the positive control
			CCOC(=O)C1=C(C)NC(C)=C(C(=O)OCC)C1c1ccccc1/C=C/C(=O)OC(C)(C)C [Lacidipine]	10.4 ± 4.4 [115 ± 15.0] %	5.6 ± 5.5 [155 ± 70.5] %	CYP3A4 mRNA induction (result in words) [4]: greater extent than the positive control
			COC(=O)C1=C(C)NC(C)=C(C(=O)OC2CCCN(Cc3ccccc3)C2)C1c1cccc([N+](=O)[O-])c1 (racemic) [rac Benidipine hydrochloride]	4.6 ± 2.3 [105 ± 14.7] %	5.6 ± 5.4 [141 ± 33.3] %	
8.7 ± 1.5	8.3 ± 2.3	201 ± 37.5	Cc1cccc(N(C)C(=S)Oc2ccc3c(c2)CCC3)c1 [Tolindate]			
		178 ± 9.77	Cc1oc2c(NC(=O)c3c(Cl)cccc3Cl)cccc2c1C(C)(C)O [FR167356]			EC50 [1]: 7.1 ± 1.2 µM; EC50 ([1]; read-out: PXR Primary EC50, qHTS primary screen, hPXR-Luc HepG2, 24 h): 3 ± 2.2 µM

Compound	EC50 [2] [µM]	EC50 [2, 7] [µM]	PXR Primary Efficacy [1, 8] [%]	PXR Follow-up Efficacy [1]	PXR Primary Efficacy [1]	also measured
CCCCOCN(C(=O)CCl)c1c(CC)cccc1CC [Butachlor]	6.49 ± 2.9	4 ± 4		107 ± 26.0%	119 ± 49.2%	CYP3A4 mRNA induction (fold increase) ([3]; human): > 5 fold
